Where “and” joins values, the source holds several entries; their conditions need not be identical. Equal entries are not always repeated. Toxic doses and inconclusive results are not listed.
Tested on: P388 leukemia ip, CD2F1 mice, survival T/C
Assay: NCI In Vivo Anticancer Drug Screen. Data for tumor model P388 Leukemia (intraperitoneal) in CD2F1 (CDF1) mice
Conditions: endpoint: median survival time, higher = longer survival
How it was run: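 Mice carrying the transplanted tumor received test compound or vehicle. Survival was recorded in each group, and the value is the treated-group measurement divided by that of the vehicle-treated control group.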

[1] = dose: 50.0 mg/kg/injection, schedule: Q01DX005 (ip), vehicle: saline with Tween-80
[2] = dose: 100.0 mg/kg/injection, schedule: Q01DX005 (ip), vehicle: saline with Tween-80
[3] = dose: 200.0 mg/kg/injection, schedule: Q01DX005 (ip), vehicle: saline with Tween-80
[4] = dose: 25.0 mg/kg/injection, schedule: Q01DX009 (ip), vehicle: saline with Tween-80
[5] = dose: 50.0 mg/kg/injection, schedule: Q01DX009 (ip), vehicle: saline with Tween-80
[6] = dose: 200.0 mg/kg/injection, schedule: Q01DX009 (ip), vehicle: saline with Tween-80
[7] = dose: 100.0 mg/kg/injection, schedule: Q01DX009 (ip), vehicle: saline with Tween-80
[8] = dose: 6.25 mg/kg/injection, schedule: Q01DX009 (ip), vehicle: Klucel (hydroxypropylcellulose) (HPC)
[9] = dose: 12.5 mg/kg/injection, schedule: Q01DX009 (ip), vehicle: Klucel (hydroxypropylcellulose) (HPC)
[10] = dose: 50.0 mg/kg/injection, schedule: Q01DX005 (ip), vehicle: Klucel (hydroxypropylcellulose) (HPC)
[11] = dose: 100.0 mg/kg/injection, schedule: Q01DX005 (ip), vehicle: Klucel (hydroxypropylcellulose) (HPC)
[12] = dose: 200.0 mg/kg/injection, schedule: Q01DX005 (ip), vehicle: Klucel (hydroxypropylcellulose) (HPC)
[13] = dose: 60.0 mg/kg/injection, schedule: Q01DX005 (ip), vehicle: Klucel (hydroxypropylcellulose) (HPC)
[14] = dose: 120.0 mg/kg/injection, schedule: Q01DX005 (ip), vehicle: Klucel (hydroxypropylcellulose) (HPC)
[15] = dose: 60.0 mg/kg/injection, schedule: Q01DX005 (ip), vehicle: saline with Tween-80
[16] = dose: 120.0 mg/kg/injection, schedule: Q01DX005 (ip), vehicle: saline with Tween-80
[17] = dose: 25.0 mg/kg/injection, schedule: Q04DX002 (ip), vehicle: saline with Tween-80
[18] = dose: 50.0 mg/kg/injection, schedule: Q04DX002 (ip), vehicle: saline with Tween-80
[19] = dose: 100.0 mg/kg/injection, schedule: Q04DX003 (ip), vehicle: saline with Tween-80
[20] = dose: 200.0 mg/kg/injection, schedule: Q04DX003 (ip), vehicle: saline with Tween-80
[21] = dose: 240.0 mg/kg/injection, schedule: Q01DX005 (ip), vehicle: saline with Tween-80
[22] = dose: 400.0 mg/kg/injection, schedule: Q01DX009 (ip), vehicle: saline with Tween-80
[23] = dose: 6.25 mg/kg/injection, schedule: Q01DX009 (ip), vehicle: saline with Tween-80
[24] = dose: 12.5 mg/kg/injection, schedule: Q01DX009 (ip), vehicle: saline with Tween-80

CCOc1ccc(Cc2ccc3c(c2)OCO3)cc1C
T/C [1]: 101 % of control
T/C [2]: 108 % of control
T/C [3]: 111 % of control

COc1cc([C@@H]2Oc3c(OC)cc4ccc(=O)oc4c3O[C@H]2CO)ccc1O
T/C (dose: 200.0 mg/kg/injection, schedule: Q01DX005 (ip), vehicle: saline + alcohol): 87 % of control
T/C (dose: 300.0 mg/kg/injection, schedule: Q01DX005 (ip), vehicle: saline + alcohol): 94 % of control

CCOC(=O)c1cc(Br)c(=O)n(C)c1
T/C [1]: 96 % of control
T/C [2]: 95 % of control
T/C [3]: 89 % of control

O=C(O)CC(=O)c1ccccc1
T/C [4]: 102 % of control
T/C [5]: 105 % of control
T/C [6]: 89 % of control

CCCCCCCC#CC(=O)O
T/C [5]: 88 % of control
T/C [7]: 89 % of control
T/C [6]: 86 % of control

COc1cc(C(=O)N=Nc2c(O)[nH]c3ccc(Br)cc23)cc(OC)c1OC
T/C (dose: 3.13 mg/kg/injection, schedule: Q01DX009 (ip), vehicle: Klucel (hydroxypropylcellulose) (HPC)): 115 % of control
T/C [8]: 106 % of control
T/C [9]: 105 % of control
T/C (dose: 400.0 mg/kg/injection, schedule: Q01DX009 (ip), vehicle: Klucel (hydroxypropylcellulose) (HPC)): 86 % of control

C1=CCC23CCCCC2(C1)CN(/N=N/N1CC24CC=CCC2(CCCC4)C1)C3 (stereo not given)
T/C [8]: 87 % of control
T/C [9]: 86 % of control

COc1ccc(-c2cc(-c3ccc(OC)cc3)nc(-c3ccc(OC)cc3)c2)cc1
T/C [10]: 98 % of control
T/C [11]: 94 % of control
T/C [12]: 89 % of control

O=C(CC1(O)C(=O)Nc2ccccc21)c1cccc([N+](=O)[O-])c1 (stereo not given)
T/C [13]: 97 % of control
T/C [14]: 103 % of control
T/C (dose: 240.0 mg/kg/injection, schedule: Q01DX005 (ip), vehicle: Klucel (hydroxypropylcellulose) (HPC)): 99 % of control

CN(C)CCOc1cccc2c1CCC2
T/C [15]: 107 % of control
T/C [16]: 87 % of control

CCOC(=O)C1=C(N)C2CC(C)=C(C)CN2C1 (stereo not given)
T/C [1]: 98 % of control
T/C [2]: 100 % of control

CC12CC3CC(C)(C1)CC(SC(=N)N)(C3)C2
T/C (dose: 7.5 mg/kg/injection, schedule: Q01DX005 (ip), vehicle: saline with Tween-80): 105 % of control
T/C (dose: 15.0 mg/kg/injection, schedule: Q01DX005 (ip), vehicle: saline with Tween-80): 104 % of control
T/C (dose: 30.0 mg/kg/injection, schedule: Q01DX005 (ip), vehicle: saline with Tween-80): 106 % of control

Cc1nn(C(=O)c2cccnc2)c(-c2ccccc2)c1N=Nc1ccc(C(=O)O)cc1
T/C [1]: 93 % of control
T/C [2]: 93 % of control

CN=C(N)N/N=C(\c1ccc(F)cc1)c1ccccc1Cl
T/C [17]: 101 % of control
T/C [18]: 100 % of control
T/C (dose: 100.0 mg/kg/injection, schedule: Q04DX002 (ip), vehicle: saline with Tween-80): 98 % of control

CCCC/C(=N\NC(N)=NC)c1ccccc1
T/C [17]: 99 % of control
T/C [18]: 100 % of control

CC1CCC[N+](C)([B-](F)(F)F)C1 (stereo not given)
T/C (dose: 50.0 mg/kg/injection, schedule: Q01DX005 (ip), vehicle: saline): 100 % of control
T/C (dose: 100.0 mg/kg/injection, schedule: Q01DX005 (ip), vehicle: saline): 100 % of control

CC1=NN(C(=O)c2ccncc2)C(=O)C1N=Nc1ccc2ccccc2c1 (stereo not given)
T/C [5]: 101 % of control
T/C [7]: 102 % of control

CCSc1ncnc2c1ncn2C1OC(CO)C(O)C1O (stereo not given)
T/C [19]: 104 % of control
T/C [20]: 109 % of control

COC1=CC=C2Nc3nc(N)[nH]c(=O)c3SC2N1 (stereo not given)
T/C [15]: 99 % of control
T/C [16]: 90 % of control
T/C [21]: 97 % of control

COc1ccc(S(=O)(=O)N/N=C/c2ccccn2)cc1OC
T/C [10]: 99 % of control
T/C [11]: 96 % of control
T/C [12]: 98 % of control

Cc1cc(=O)oc2nn(CCO)c(C)c12
T/C [15]: 105 % of control
T/C [16]: 100 % of control
T/C [21]: 91 % of control

CN=C(N/N=C(C)\C=N\NC(=NC)N(C)C)N(C)C
T/C [1]: 109 % of control
T/C [2]: 105 % of control
T/C [3]: 105 % of control

O=c1[nH]c2c([N+](=O)[O-])cc(Cl)cc2nc1/C=C(\O)c1ccncc1
T/C [13]: 102 % of control
T/C [14]: 99 % of control

CC(C)C1[C@H]2OC(=O)[C@@H]1C1CCC3CN(C)C2C31C (stereo not given in full)
T/C (dose: 1.25 mg/kg/injection, schedule: Q01DX005 (ip), vehicle: Klucel (hydroxypropylcellulose) (HPC)): 99 % of control
T/C (dose: 2.5 mg/kg/injection, schedule: Q01DX005 (ip), vehicle: Klucel (hydroxypropylcellulose) (HPC)): 99 % of control
T/C (dose: 5.0 mg/kg/injection, schedule: Q01DX005 (ip), vehicle: Klucel (hydroxypropylcellulose) (HPC)): 96 % of control
T/C (dose: 10.0 mg/kg/injection, schedule: Q01DX005 (ip), vehicle: Klucel (hydroxypropylcellulose) (HPC)): 95 % of control

O=C1/C(=C/c2ccc([N+](=O)[O-])cc2)Cc2c1cccc2[N+](=O)[O-]
T/C (dose: 25.0 mg/kg/injection, schedule: Q01DX001 (ip), vehicle: saline with Tween-80): 98 % of control
T/C (dose: 50.0 mg/kg/injection, schedule: Q01DX001 (ip), vehicle: saline with Tween-80): 98 % of control
T/C (dose: 100.0 mg/kg/injection, schedule: Q01DX001 (ip), vehicle: saline with Tween-80): 99 % of control and 95 % of control
T/C (dose: 200.0 mg/kg/injection, schedule: Q01DX001 (ip), vehicle: saline with Tween-80): 93 % of control
T/C (dose: 400.0 mg/kg/injection, schedule: Q01DX001 (ip), vehicle: saline with Tween-80): 89 % of control

CC1=COC2CCCCC2O1 (stereo not given) (tested in a mixture with another compound)
T/C (dose: 25.0 mg/kg/injection, schedule: Q01DX009 (ip), vehicle: acetone): 111 % of control
T/C (dose: 50.0 mg/kg/injection, schedule: Q01DX009 (ip), vehicle: acetone): 105 % of control

COC(=O)c1c(C(=O)OC)c(-c2ccc(Cl)c(Cl)c2)n2c1CCC2
T/C [7]: 87 % of control
T/C [6]: 89 % of control
T/C [22]: 88 % of control

O=C1C=C(Sc2ccc3ccccc3c2)C(=O)c2ccccc21
T/C (dose: 3.13 mg/kg/injection, schedule: Q01DX009 (ip), vehicle: saline with Tween-80): 101 % of control
T/C [23]: 105 % of control
T/C [24]: 104 % of control
T/C [4]: 95 % of control
T/C [5]: 104 % of control

O=C1OC(=O)c2ncccc21
T/C [23]: 101 % of control
T/C [24]: 96 % of control
T/C [4]: 101 % of control
T/C [5]: 111 % of control

Cc1ccc(N=Nc2c(O)n(-c3ccccc3C)c(=S)n(-c3ccc(Br)cc3)c2=O)cc1
T/C [5]: 100 % of control
T/C [7]: 101 % of control

Cc1nc(C(=O)O)c(C(=O)O)[nH]1
T/C (dose: 100.0 mg/kg/injection, schedule: Q01DX009 (ip), vehicle: saline sonified): 90 % of control
T/C (dose: 200.0 mg/kg/injection, schedule: Q01DX009 (ip), vehicle: saline sonified): 100 % of control

C/C(=N/N=C(N)N)c1cnn(C(=N)N)c1C
T/C [13]: 99 % of control
T/C [14]: 114 % of control

Cc1ccc2[nH]c(C)c(C(=O)c3ccncc3)c2c1
T/C (dose: 100.0 mg/kg/injection, schedule: Q04DX003 (ip), vehicle: Klucel (hydroxypropylcellulose) (HPC)): 100 % of control
T/C (dose: 200.0 mg/kg/injection, schedule: Q04DX003 (ip), vehicle: Klucel (hydroxypropylcellulose) (HPC)): 100 % of control
T/C (dose: 400.0 mg/kg/injection, schedule: Q04DX003 (ip), vehicle: Klucel (hydroxypropylcellulose) (HPC)): 107 % of control

O=S(=O)(Nc1ccc(O)cc1)c1ccccc1
T/C (dose: 25.0 mg/kg/injection, schedule: Q04DX003 (ip), vehicle: saline with Tween-80): 110 % of control
T/C (dose: 50.0 mg/kg/injection, schedule: Q04DX003 (ip), vehicle: saline with Tween-80): 100 % of control
T/C [7]: 108 % of control
T/C [19]: 107 % of control
T/C [6]: 100 % of control
T/C [20]: 100 % of control
T/C [22]: 87 % of control
T/C (dose: 400.0 mg/kg/injection, schedule: Q04DX003 (ip), vehicle: saline with Tween-80): 100 % of control
